# Patent publication US20080301822A1, “Role of alpha1-adrenergic receptors” (The Cleveland Clinic Foundation, priority 2005, published 2008)
# Columns and labels:
# pyramidal cells = experiment: Action potential generation in pyramidal cells (unpublished data); assay type: cell-based
# [1] = tested on: α1A-AR-EGFP positive hippocampal CA1 interneurons; experiment: Cell-attached patch recordings of spontaneous action potentials in hippocampal slices; assay type: cell-based, mouse; conditions: 6FNE 10 μM
# Method: Slice Preparation and Cell Identification. Hippocampal brain slices were prepared from α1A-AR-EGFP mice in strict accordance with a protocol approved by the Institutional Animal Care and Use Committee at the University of North Dakota. Mice were deeply anesthetized with isoflurane, sacrificed by decapitation, and their brains rapidly removed and placed in an ice-cold saline solution containing (in mM): 130 NaCl, 24 NaHCO3, 5 KCl, 1.25 NaH2PO4, 0.5 CaCl2, 4 MgCl2 and 10 glucose (saturated with 95% O2-5% CO2). The brain was then sectioned at 250-350 μm thick intervals using a Microm HM 650V vibrating blade microtome (Richard-Allen Scientific, Kalamazoo, Mich.). Slices were incubated at 35° C. for 40 min and then allowed to recover for at least 30 min at room temperature (22±1° C.) before experimentation. Slices were transferred to a PC-H chamber with a coverslip bottom (SD Instruments, Grants Pass, Oreg.) mounted on the fixed stage of an upright microscope (Olympus BX51 WI, Tokyo, Japan) equipped with a filter set for fluorescence imaging of EGFP and IR-DIC optics. Interneurons were visualized using 470 nm and 900 nm light with a water immersion objective (Olympus LUMPlanF1 60×IR) and two CCD cameras (Olympus MagnaFire and Sony XC-75, Tokyo, Japan). Dedicated MagnaFire software and a Hamamatsu C-2400 camera controller (Hamamatsu City, Japan) were used to adjust image quality in GFP and IR-DIC channels, respectively. […]
# Electrophysiological Recordings. […] Action potentials (APs) were recorded using an Axopatch 200B amplifier (Axon Instruments, Union City, Calif.) in voltage-clamp mode, filtered at 2 kHz, digitized at 10 kHz (Digidata 1322A; Axon Instruments), and recorded to disk using pClamp9.0 software (Axon Instruments). […] Data were analyzed offline using Origin (OriginLab Corp., Northampton, Mass.) and Mini analysis 6.0.1 (Synaptosoft Inc., Decatur, Ga.). Each detected event was inspected visually to exclude obvious false action potentials (AP) before analysis. […] Statistical significance (p<0.05) was determined using the paired Student's t test, and mean values are expressed ±SEM.
# [2] = tested on: α1A-AR mediated increased Ngn2 expression in normal neonatal neurospheres; experiment: Real time PCR of α1A-AR induced Ngn2 expression with signaling inhibitors; assay type: cell-based, mouse; conditions: one day phenylephrine treated normal neonatal neurospheres; FIG. 27
# Method: (§1) Real Time PCR. Neurospheres were grown in proliferation or differentiation medium for 1, 3, 7 and 10 days respectively. The neurospheres grown in the proliferation medium were treated with phenlyephrine for the above-mentioned time along with Rauwalscine (0.1 uM) and Propranolol (1 uM). Total RNA was isolated using the RNAesy kit (Quiagen) and 2 ug RNA was reverse transcribed using oligodT primers with Superscript II Reverse Transcriptase (Invitrogen). Quantitative real time PCR was performed in iCycler (Biorad) using iQ SYBR Green Supermix. (Bio-Rad) The cDNA was amplified with primers for various neural stem cell proliferation and differentiation genes like Notch-1, Nestin, Mash-1, NeuroD, Math-1, Mash-1, Ngn-1, Ngn-2, D1x-2, Sox-2 and Zic-1. Samples obtained from three independent experiments were used for analysis of relative gene expression using the 2(-Delta Delta C(T) Method (Livak, K J and Schmittgen, T D, Methods 25:402-408 (2001)) and were normalized to α-Tubulin gene expression as internal control.
# Since Ngn2 mRNA expression, a major gene of neuronal differentiation, appears to be regulated by the α1A-ARs, the common a i-AR signals responsible for this gene regulation was determined. Real time PCR and inhibitors for PKC (GO6983), PI3K (LY294002), MEK (PD98059) and p38 (SB202190) were used on one day phenylephrine treated normal neonatal neurospheres. The α1A-AR mediated increased Ngn2 expression was blocked by PKC, PI3K and MEK (ERK) inhibition but not by the p38 inhibitor (FIG. 27).
# [3] = tested on: normal embryonic mouse neurospheres; experiment: Differentiation rates (number of live cells) in differentiation media (−EGF/FGF); assay type: cell-based; conditions: FIG. 16
# Method: Differentiation rates (number of live cells) were also measured in normal neurospheres using differentiation media (−EGF/FGF) with and without phenylephrine.
# (§2) Differentiation Assay: The neurospheres were differentiated by withdrawing the growth factors either in the differentiation supplement (stem cell technologies) for embryonic neurospheres or in B-27 medium with 2% serum (for neonatal neurospheres) after dissociating them with the chemical dissociation kit (Stem Cell Technologies). The cells were plated at the density of 2×10^5 cells in 12 well plates and treated with Phenylephrine (10 uM).
# CAM α1A-AR neurospheres = experiment: Neurosphere differentiation with phenylephrine, CAM α1A-AR neurospheres; assay type: cell-based, mouse; conditions: day 10, FIG. 22B
# Method: as §2
# [4] = tested on: α1A-KO neonatal neurospheres; experiment: Neurosphere differentiation with phenylephrine, α1A-KO neurospheres; assay type: cell-based, mouse; conditions: 10 days, FIG. 23B
# Method: (§3) Neurosphere Isolation Periventricular tissue from 1-2 day old pups was removed into HEPES-buffered Eagles' medium. The tissue was diced and incubated with Mg/Ca-free HBSS containing EDTA, trypsin, and DNase. The tissue was washed, centrifuged, and the pellet was triturated in PBS to produce a single-cell suspension and was passed through a 70 um cell strainer. The cells were cultured in B27 media containing heparin, bFGF and EGF until neurosphere development. Neurospheres were dissociated and replated several passages. A single neurosphere was picked, mechanically dissociated, and cloned by dilution.
# as §2
# [5] = tested on: normal mouse neurospheres; experiment: Neurosphere differentiation with phenylephrine in proliferation media (+EGF/FGF), immunostaining for MAP2, GFAP, NG2; assay type: cell-based; conditions: phenylephrine 10 uM, 3-10 days
# Method: as §3
# as §2, with “The neurospheres were differentiated by withdrawing the growth factors either in the differentiation” left out
# [6] = tested on: normal neonatal neurospheres; experiment: Real time PCR of neurogenic genes after phenylephrine stimulation; assay type: cell-based, mouse; conditions: FIG. 26
# Method: as §1
# α1-ARs = experiment: Saturation ligand binding on neurosphere membranes; set-up: species or system mouse; conditions: normal embryonic and neonatal neurospheres, FIG. 19A
# Method: Ligand Binding. Membranes were prepared and ligand binding was performed as previously described (Rorabaugh et al., Cardiovas. Res., 65:436-445 (2005)). Saturation or competition binding used the nonselective i-AR antagonist, 2-[β-(4-hydroxyl-3-^125I-iodophenyl)ethylaminomethyl]-tetralone (^125I-HEAT) or ^125I-CYP as the radioligand, using either increasing concentration of the radiolabel or using a KD amount (100 pM) to label total α1-ARs and increasing concentrations of an non-labeled selective antagonist. Non-specific labeling was determined by adding 100 uM phentolamine (or α1-ARs) or 1 uM propranolol (for β-ARs). Bmax and KD were determined through the use of Graphpad Prism. Statistical analysis of the binding data used a one-way ANOVA followed by a Newman-Keul's post-test where p<0.05 was considered significant.
smiles,measurement,setting,value
"Cl.NCC(O)c1cc(O)c(O)cc1F (centres unmarked) [6FNE, 6-fluoronorepinephrine (6FNE) hydrochloride]",action potential generation in pyramidal cells,pyramidal cells,inhibits action potential generation
same,effect on AP frequency over control conditions,"[1]; FIG. 6D, fully reversible with wash",large increase in AP frequency
same,"frequency of spontaneous action potential discharge, range","[1]; n=4, control range 0-0.7 Hz",1.8-6.5 Hz
same,"frequency of spontaneous action potential discharge, mean","[1]; n=4, mean ±SEM, control 0.3±0.1 Hz, 22±1° C.",3.5±1.1 Hz
COc1ccc2c(c1)c(C1=C(c3c[nH]c4ccccc34)C(=O)NC1=O)cn2CCCN(C)C [GO6983],block of α1A-AR mediated increased Ngn2 expression,[2],blocked
COc1cc2nc(N3CCN(C(=O)c4ccco4)CC3)nc(N)c2cc1OC [prazosin],block of the phenylephrine enhancement of neurosphere differentiation,[3]; differentiation media (−EGF/FGF) + phenylephrine,can be blocked
CNC[C@H](O)c1cccc(O)c1 [Phenylephrine],differentiation of neurospheres (number of live cells),[3]; differentiation media (−EGF/FGF),enhances differentiation of neurospheres
same,effect on CAM α1A-AR neurospheres (differentiation),CAM α1A-AR neurospheres,very little effect
same,effect on α1A-KO neurospheres (differentiation),[4],increased formation of neurons
same,differentiation of normal neurospheres in proliferation medium (+EGF/FGF),[5],caused the differentiation of the neurospheres
same,differentiation of normal neurospheres in proliferation medium (+EGF/FGF),[5]; listed as Phe,induced differentiation into all three cell types
same,increase of α1A-AR mRNA expression,[6],two hundred-fold
same,increase of α1B-AR mRNA expression,[6],10 fold
same,mRNA expression of genes involved in neurogenesis and neuronal differentiation,[6]; normal neonatal neurospheres,induced increased mRNA expression
"O=C1c2ccccc2CCC1CNCCc1ccc(O)c([125I])c1 (stereo not drawn) [125I-HEAT, 2-[β-(4-hydroxyl-3-^125I-iodophenyl)ethylaminomethyl]-tetralone]",Kd,α1-ARs,0.176 nM
COc1cccc(-c2cc(=O)c3ccccc3o2)c1N [PD98059],block of α1A-AR mediated increased Ngn2 expression,[2],blocked
Oc1ccc(-c2nc(-c3ccncc3)c(-c3ccc(F)cc3)[nH]2)cc1 [SB202190],block of α1A-AR mediated increased Ngn2 expression,[2],not
